The values below come from PubChem BioAssay AID1508591.

Some results are limits rather than exact numbers.

For this data set the following is noted: rat; liver microsomes; pH 7.4; 15.0 min; 1.0 µM. A general note: Microsomes from liver hold many membrane-bound enzymes, among them those of drug oxidation.
`O=C(N/N=C/c1ccc(Sc2ccccn2)o1)c1ccncc1`: the half-life (commonly how long it takes for the measured level to halve) was greater than 30 min.

`Cc1ccc(-c2csc(Nc3ccc(S(=O)(=O)Nc4nccs4)cc3)n2)cc1C` displayed a half-life greater than 30 min.

In the case of `COc1cc2nccc(Oc3ccc(NC(=O)Nc4cc(C)on4)c(Cl)c3)c2cc1OC`, the half-life is greater than 30 min. `COc1cccc(CNc2ccc(S(=O)(=O)Nc3ccc(C)nc3)cc2)c1O` had a half-life of 16 min. Next, `Cc1ccnc(NC(=O)C2CC(=O)N(c3n[nH]c4cc(Br)ccc34)C2)c1` (stereo unspecified): greater than 30 min; `NCC(=O)Nc1cncc(-c2nn3c(=O)cc(N4CCNCC4)nc3s2)c1`: greater than 30 min; `Cc1ccc(-c2nn(C(C)(C)C)c3ncnc(N)c23)cc1`: 4.87 min. In the case of `CCOC(=O)C1CCN(C(=O)C2(NC(=O)Nc3ccccc3Cl)CCCC2)CC1`, the half-life worked out at 1.5 min.

The molecule `CC(C)OC(=O)c1ccnc2cc(C(OCCN3CCCCC3)c3ccccc3Cl)sc12` (stereo unspecified) returned a half-life of 4.49 min. Against the preceding molecule, the half-life is about 3-fold higher. The same measure for `O=C1CCCC2=C1C1(CCS(=O)(=O)C1)N=C(Nc1nc3ccccc3o1)N2` (stereo unspecified): 17 min. The same measure for `O=C1CCc2cc(S(=O)(=O)Nc3ccc(F)c(Cl)c3)ccc2N1`: 20.5 min; for `Cc1cc(C)nc(NC(=S)N2CCN(c3cc(C(F)(F)F)nc4ccc(C(F)(F)F)cc34)CC2)c1`: greater than 30 min. Next, `COc1cccc(C(=O)Nc2ccc3oc(-c4ccc5ccccc5c4)nc3c2)c1`: 27.9 min; `O=C(Nc1ccccc1C(=O)Nc1cccc(C(F)(F)F)c1)c1ccccc1`: greater than 30 min.

`Cc1ccc(-n2ncc(C(=O)NCCN3CCC(Cc4ccccc4)CC3)c2C2CCN(C(=O)OC(C)(C)C)CC2)cc1` showed a half-life of 9.29 min. In turn, `N=c1c2ccccc2nnn1-c1ccc(C(F)(F)F)cc1` yielded a half-life greater than 30 min. The molecule `O=C(NC1CCCCC1)N1Cc2[nH]cnc2C[C@H]1c1nc(-c2cccc([N+](=O)[O-])c2)no1` had a half-life of 10.3 min. `O=c1cc(-c2nc(Nc3ccc(F)c(F)c3)c3ccccc3n2)cc[nH]1` yielded a half-life greater than 30 min. The same measure for `O=C(Nc1nc(-c2ccccc2)cs1)c1ccncc1NS(=O)(=O)c1cccc2cccnc12`: 7.4 min. `Cn1ccc2cc(-c3csc(N4CCC(C(N)=O)CC4)n3)ccc21` yielded a half-life of 2.09 min. Next, `COc1cccc(C(=O)Nc2nc(-c3nnn(-c4cccc(Cl)c4C)c3C)ns2)c1`: 18.6 min; `CC[C@H]1CN2CCC3CC(OC)C(OC)CC3[C@@H]2C[C@@H]1C[C@H]1NCCC2=C1CC(OC)=C(O)C2` (stereo partly specified): greater than 30 min. `COc1cccc(CNc2ccc(S(=O)(=O)Nc3ccc(N4CCNCC4)nc3)cc2)c1O` displayed a half-life greater than 30 min. Next, `Cc1ccc(S(=O)(=O)Nc2ccc(C(=O)Nc3nc(-c4ccc(Cl)cc4)cs3)cc2)cc1`: 16 min. Next, `COC(=O)c1ccc(NS(=O)(=O)c2c(C)nc3sccn3c2=O)cc1`: 3.88 min; `Cc1ccc(C(=O)Nc2cccc(C(F)(F)F)c2)cc1Nc1nc(-c2cccnc2)nc2c1cnn2C`: greater than 30 min. In turn, `CSc1ccc(-c2cnc(N3CCC(C(N)=O)CC3)s2)cc1` displayed a half-life of 1.53 min. `Cc1ccc2oc3c(c(=O)c2c1)C(c1cccc(O)c1)N(CCCN1CCOCC1)C3=O` (stereo unspecified): the half-life was 9.55 min. In turn, `COc1ccccc1-c1nc(NCc2ccc(-c3cccnc3)cc2)c2ccccc2n1` had a half-life of 4.45 min. The same measure for `Cc1ccc(-n2c(=O)c3oc4ccccc4c3n(CC(=O)Nc3ccc(F)c(Cl)c3)c2=O)cc1C`: 29.6 min; for `CCCc1cc(C)[nH]c(=O)c1CNC(=O)c1cc(-c2ccnc(N3CCN(C)CC3)c2)cc2c1cnn2C(C)C`: 27.2 min. The same measure for `CC(=O)c1ccc(N2CCN(C(=O)c3ccc4c(c3)CC(=O)N4)CC2)cc1`: greater than 30 min. Molecule `N#Cc1nc(-c2cccc3ccccc23)oc1NC1CNC1` gave a half-life greater than 30 min. Next, `Cc1cccc(N2CCN(c3nc4ccccc4c4nnc(C)n34)CC2)c1C`: 17.6 min; `Cc1sc2c(c1C)C(c1ccc(Cl)cc1)=N[C@@H](CC(=O)OC(C)(C)C)c1nnc(C)n1-2`: 6.4 min; `CCCC1=Nc2cc(C(=O)NC3CCCC3)ccc2Sc2ccc(C)cc21`: 1.41 min. Regarding `O=S(=O)(Nc1nccs1)c1ccc(Nc2nc(-c3ccc(F)cc3)cs2)cc1`, the half-life is greater than 30 min. The molecule `COc1cccc(CNc2ccc(S(=O)(=O)Nc3cccs3)cc2)c1O` gave a half-life of 1.6 min. As for `O=C(Nc1nc(-c2ccc(F)cc2)cs1)c1ccncc1NS(=O)(=O)c1ccccc1Cl`, the half-life was greater than 30 min. Next, `Cc1cnc(-c2ccccc2C2COC2)nc1NCc1ccc(-n2ccnn2)cc1`: greater than 30 min; `CN1CCN(C(c2ccccc2)c2ccc(Cl)cc2)CC1` (stereo unspecified): 3 min. In turn, `COc1ccnc(NC(=S)N2CCN(c3cccc(C(F)(F)F)n3)CC2)c1` showed a half-life of 12 min. This half-life is about 4-fold higher than that of the molecule before. Take `CCN1CCN(C(=O)CCCn2nc(C)c3c(C)n(-c4ccc(C)cc4)nc3c2=O)CC1`: the half-life was determined as 22.2 min. The same measure for `COc1ccc(Cl)cc1NC(=O)c1sc2nc3c(cc2c1N)N1CCC3CC1`: 26.4 min. Molecule `NC(=O)C1CCN(c2nc(-c3ccccc3C(F)(F)F)cs2)CC1` yielded a half-life of 5.58 min. The same measure for `Cc1ncc2c(c1CNC(=O)Cn1cnc3ccccc3c1=O)CCNC2`: greater than 30 min; for `COc1cccc(-c2nc(-c3c(C)noc3C)cc3[nH]c(C)cc23)c1OC`: 10.2 min.

Molecule `COc1ccc(NC(=O)c2c(C)cccc2C)cc1[S+](=O)([O-])N(C)C` returned a half-life greater than 30 min. Next, `COc1c(C)c2c(c(O)c1C/C=C(\C)CCC(=O)OCCN1CCOCC1)C(=O)OC2`: 1 min.

For `O=C(Nc1ccc(Cl)c(S(=O)(=O)N2CCOCC2)c1)c1ccc(S(=O)(=O)N2CCOCC2)cc1`, the half-life was found to be 6.4 min. The same measure for `Cc1ccc2nc(-c3ccccn3)c(Nc3ccccc3C)n2c1`: 12.2 min; for `COc1ccc(-c2ccc3ncc(Nc4ccncc4)n3n2)cc1OC`: 23 min. In turn, `Cc1ccc(C(N)=O)cc1Nc1nccc(-c2cn(C(C)C)c3cnccc23)n1` displayed a half-life greater than 30 min.

`Cc1nsc(N)c1C(=O)N(C)CCOc1ccccc1Cl`: the half-life worked out at 3.7 min. Take `NC(=O)c1ccc(-c2nc3c([nH]2)CN(C(=O)CN2CCOCC2)CC3)cc1`: the half-life is greater than 30 min.

`CN(Cc1cccs1)c1nc(-c2ccccc2C(F)(F)F)nc2ccccc12`: the half-life is 1.98 min. Next, `Cc1c(O)ccc2c1OC(C)(C)CC2`: 3.9 min.

In turn, `N#Cc1ccc(C(=O)Nc2ccc(Cl)c(-c3nc4cc(Cl)ccc4o3)c2)c(F)c1` gave a half-life greater than 30 min. Consider `C[N+]1([O-])[C@@H]2CC[C@H]1CC(OC(=O)C(CO)c1ccccc1)C2` (stereo partly specified), for which the half-life was greater than 30 min.

As for `CN(C)CCCn1cc(C2=C(c3c[nH]c4ccccc34)C(=O)NC2=O)c2ccccc21`, the half-life is 10.5 min. `Cc1ccc(-c2nnc(N3CCC(C(N)=O)CC3)s2)cc1` returned a half-life of 6.38 min.

The molecule `Cc1ccccc1CSc1nc2ncc(Br)cc2[nH]1` came in with a half-life of 7 min. For `Cc1cccc(-n2cnc3cc(C(=O)N4CCCC(C(C)C)C4)ccc32)c1` (stereo unspecified), the half-life worked out at 1.8 min. In turn, `CCOc1ccc(S(=O)(=O)NCc2cccnc2)cc1NC(=O)c1ccccc1F` gave a half-life of 2.82 min. Molecule `O=C(c1ccc(-c2ncc3cnc(-c4ccccc4)cn23)cc1)N1CCS(=O)(=O)CC1` gave a half-life greater than 30 min.

Turning to `CN(C)c1cccc(-c2cnc(Nc3cccnc3)c3c2CCO3)c1`, the half-life was 5.25 min.

Molecule `NC1(c2ccc(NC(=O)c3ccnc(-c4cc(C(=O)O)ccn4)c3)cc2)CC1` had a half-life greater than 30 min.

As to `N#CC1(c2ccc(NC(=O)c3cccnc3NCc3ccncc3)cc2)CCCC1`, the half-life was found to be 9.14 min. As to `COc1ccc(-c2cc(C(F)(F)F)nc(SCCC(=O)Nc3cc(C)ccc3O)n2)cc1`, the half-life amounted to 14.9 min. Compared with the last molecule, the half-life is about 1.6-fold higher. Turning to `O=[S+]([O-])(Nc1nccs1)c1ccc(NCc2cccc3c2NCC3)cc1`, the half-life is greater than 30 min. The molecule `COc1cc(C2CC(=O)Nc3cc4c(cc32)OCCO4)cc(Br)c1OC` (stereo unspecified) showed a half-life of 2.55 min.

For `C=CC(=O)N1CCCN(c2cc(NCCC(=O)O)nc(-c3ccccn3)n2)CC1`, the half-life was greater than 30 min. `COc1cccc(C(=O)Nc2cccc(OCc3cc(=O)n4cccc(C)c4n3)c2)c1`: the half-life is 3.17 min. Next, `CCCCCn1c(CCCNC(=O)c2ccccc2OC)nc2ccccc21`: 1.31 min; `O=C1CCCC2=C1C(c1[nH]ncc1Cl)N=C(Nc1nc3c(Cl)cccc3o1)N2` (stereo unspecified): 3.4 min; `O=S(=O)(Nc1nc2ccccc2s1)c1ccc(NCc2cccc(Cl)c2O)cc1`: greater than 30 min. The same measure for `C[C@@H](NC(=O)c1ncnc(N)c1Cl)c1ncc(C(=O)Nc2cc(C(F)(F)F)c(Cl)cn2)s1`: greater than 30 min; for `O=C1CCCC2=C1C(C1CCCCC1Cl)N=C(NC1NC3CCCCC3S1)N2` (stereo unspecified): 10.9 min. For the molecule `O=[S+]([O-])(Nc1ccc(C2CCNCC2)cc1)c1ccc(NCc2ccc(Br)cc2O)cc1`, the half-life was greater than 30 min.

Consider `Cc1cnc(-c2ccccc2C2CC2)nc1NCc1ccc(-c2cccnc2)cc1`, for which the half-life came out at 6.2 min. As to `CN1C(=O)c2ccccc2[S@](=O)c2ccc(C(=O)NCCN3CCCC3)cc21`, the half-life is greater than 30 min. The same measure for `Cc1ccccc1C(=O)N1CCC(C(=O)N2CCC(N3Cc4ccccc4C3=O)CC2)CC1`: 11.8 min. Molecule `COc1ccccc1C(=O)NC1CCCc2c1[nH]c1c(Cl)cccc21` (stereo unspecified) had a half-life of 2.31 min. Against the preceding molecule, the half-life is about 5.1-fold lower.

`Cc1cccc(C(=O)N2CCc3cc(-c4nc(NC(=O)Cc5ccc6c(c5)OCO6)sc4C)ccc32)c1` displayed a half-life of 4.4 min. In the case of `COc1ccccc1CNc1ccc(N2CCCCC2)cc1`, the half-life was found to be 2.19 min. Next, `O=C([C@@H]1CCCN(c2ccc3[nH]c(C4(n5cc(Cl)cn5)CC4)nc3n2)C1)N1CCCC1`: greater than 30 min; `O=S(=O)(Nc1ccccc1)c1ccc(NCc2ccc(Br)cc2O)cc1`: 2 min; `Nc1nc2c(s1)C(c1ccc(F)c(F)c1)CC(=O)N2` (stereo unspecified): 29.7 min. Next, `CC(=O)Nc1ncc(S(=O)(=O)N2CCOCC2)s1`: greater than 30 min.

`O=S(=O)(Nc1nccs1)c1ccc(NCc2ccccc2O)cc1`: the half-life was 24 min. The molecule `Cc1cc(NS(=O)(=O)c2ccc(C(=O)NCc3ccc(Cl)c(Cl)c3)cc2)no1` displayed a half-life greater than 30 min.
